According to US11591336B2 (Relay Therapeutics, Inc., priority 2017, dated 2023):
Where a name gives a salt, the structure may show the parent alone.

biological target: SHP2 (Homo sapiens (Human), UniProt Q06124); assay: SHP2 Allosteric Inhibition Assay (DiFMUP prompt fluorescence); type: biochemical; details: 0.25 nM SHP2 activated with 0.5 μM peptide IRS1_pY1172(dPEG8)pY1222; substrate DiFMUP 100 μM; 25° C.

Row | SMILES | IC50
1 | N[C@H]1CCC[C@@]12CCN(c1cnc3c(N4CCCc5ncccc54)n[nH]c3n1)C2 (stereo in doubt) [Compound 205, rel-(5S,6S)-2-(3-(3,4-dihydro-1,5-naphthyridin-1(2H)-yl)-1H-pyrazolo[3,4-b]pyrazin-6-yl)-2-azaspiro[4.4]nonan-6-amine] | 1000 to 10000 nM
2 | CC1CCN(c2n[nH]c3nc(N4CCC5(CC4)CO[C@@H](C)[C@H]5N)cnc23)c2ccc(C(N)=O)nc21 (stereo in doubt) [Compound 265, (8R)-5-{6-[(3S,4S)-4-amino-3-methyl-2-oxa-8-azaspiro[4.5]decan-8-yl]-1H-pyrazolo[3,4-b]pyrazin-3-yl}-8-methyl-5,6,7,8-tetrahydro-1,5-naphthyridine-2-carboxamide] | < 1000 nM
3 | COCCNC(=O)c1ccc2c(n1)C(C)CCN2c1n[nH]c2nc(N3CCC4(CC3)CO[C@@H](C)[C@H]4N)cnc12 (stereo in doubt) [Compound 437, (8S)-5-(6-[(3S,4S)-4-amino-3-methyl-2-oxa-8-azaspiro[4.5]decan-8-yl]-1H-pyrazolo[3,4-b]pyrazin-3-yl)-N-(2-methoxyethyl)-8-methyl-5,6,7,8-tetrahydro-1,5-naphthyridine-2-carboxamide hydrochloride] | < 1000 nM
4 | N[C@@H]1CC(O)CC12CCN(c1cnc3c(N4CCCc5ncccc54)n[nH]c3n1)CC2 (stereo in doubt) [Compound 468, (2R,4R)-4-amino-8-(3-(3,4-dihydro-1,5-naphthyridin-1(2H)-yl)-1H-pyrazolo[3,4-b]pyrazin-6-yl)-8-azaspiro[4.5]decan-2-ol] | < 1000 nM
5 | NC1CCCC12CCN(c1cnc3c(Sc4cccnc4C(F)(F)F)n[nH]c3n1)CC2 (stereo in doubt) [Compound 476, (S)-8-(3-((2-(trifluoromethyl)pyridin-3-yl)thio)-1H-pyrazolo[3,4-b]pyrazin-6-yl)8-azaspiro[4.5]decan-1-amine] | < 1000 nM
6 | CC1CNCC(Sc2n[nH]c3nc(N4CCC(C)(N)CC4)cnc23)C1 (stereo not shown) [Cmpd 490] | ≥ 10000 nM
7 | CC1(CN)CCN(c2cnc3c(Sc4ccccc4)n[nH]c3n2)CC1 [Compound 7, (4-methyl-1-(3-(phenylthio)-1H-pyrazolo[3,4-b]pyrazin-6-yl)piperidin-4-yl)methanamine] | < 1000 nM
8 | CC1(N)CCN(c2cnc3c(Sc4cccnc4C(F)(F)F)n[nH]c3n2)CC1 [Compound 8, 4-methyl-1-(3-((2-(trifluoromethyl)pyridin-3-yl)thio)-1H-pyrazolo[3,4-b]pyrazin-6-yl)piperidin-4-amine] | < 1000 nM
9 | CC1(CN)CCN(c2cnc3c(Sc4ccccc4Cl)n[nH]c3n2)CC1 [Compound 9, (1-(3-((2-chlorophenyl)thio)-1H-pyrazolo[3,4-b]pyrazin-6-yl)-4-methylpiperidin-4-yl)methanamine] | < 1000 nM

Results, then the compound that gave them:

Row | IC50 | SMILES
10 | < 1000 nM | C[C@@H]1C[C@@H](N)CCN1c1cnc2c(N3CCCc4ncccc43)n[nH]c2n1 (stereo in doubt) [Compound 74, rac-(2R,4S)-1-(3-(3,4-dihydro-1,5-naphthyridin-1(2H)-yl)-1H-pyrazolo[3,4-b]pyrazin-6-yl)-2-methylpiperidin-4-amine]
11 | 1000 to 10000 nM | N[C@@H]1CCC[C@]12CCN(c1cnc3c(N4CCCc5ncccc54)n[nH]c3n1)C2 (stereo in doubt) [Compound 204, rel-(5R,6R)-2-(3-(3,4-dihydro-1,5-naphthyridin-1(2H)-yl)-1H-pyrazolo[3,4-b]pyrazin-6-yl)-2-azaspiro[4.4]nonan-6-amine]
12 | < 1000 nM | CC1CCN(c2n[nH]c3nc(N4CCC5(CC4)CO[C@@H](C)[C@H]5N)cnc23)c2ccc(C(N)=O)nc21 (stereo in doubt) [Compound 264, (8S)-5-{6-[(3S,4S)-4-amino-3-methyl-2-oxa-8-azaspiro[4.5]decan-8-yl]-1H-pyrazolo[3,4-b]pyrazin-3-yl}-8-methyl-5,6,7,8-tetrahydro-1,5-naphthyridine-2-carboxamide]
13 | ≥ 10000 nM | Cn1nc(Sc2ccncc2)c2ncc(N3CCC(C)(N)CC3)nc21 [Cmpd 487]
